A word on the IC50: it is the concentration that inhibits the measured activity by half.

Here are results for 3 compounds from ChEMBL document CHEMBL1759887, “Discovery of indole alkaloids with cannabinoid CB1 receptor antagonistic activity” (Bioorg Med Chem Lett, 2011).

The target of the test is Cannabinoid receptor 1 (Homo sapiens, UniProt P21554). Put plainly: Antagonist activity at CB1 receptor transfected in CHO cells expressing apoaequorin as a reporter for G-protein-coupled receptor-mediated calcium signaling by bioluminescence assay. It counts as functional, cell-based.
Chain of Cannabinoid receptor 1 (P21554 whole entry): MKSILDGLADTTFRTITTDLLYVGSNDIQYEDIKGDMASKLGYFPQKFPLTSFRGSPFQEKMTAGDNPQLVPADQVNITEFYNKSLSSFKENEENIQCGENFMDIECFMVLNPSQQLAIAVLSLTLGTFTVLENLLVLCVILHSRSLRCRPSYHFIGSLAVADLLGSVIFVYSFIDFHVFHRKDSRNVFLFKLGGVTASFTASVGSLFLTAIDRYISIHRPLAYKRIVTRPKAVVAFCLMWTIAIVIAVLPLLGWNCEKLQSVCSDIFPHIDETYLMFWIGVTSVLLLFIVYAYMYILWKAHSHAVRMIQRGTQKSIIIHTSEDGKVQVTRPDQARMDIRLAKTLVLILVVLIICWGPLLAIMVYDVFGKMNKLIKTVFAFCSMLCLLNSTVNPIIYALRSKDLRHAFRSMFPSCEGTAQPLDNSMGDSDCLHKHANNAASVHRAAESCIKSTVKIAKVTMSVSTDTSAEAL
Take `CC[C@H]1C[C@@H]2C[C@@]3(C(=O)OC)c4[nH]c5ccc(OC)cc5c4[C@@H]4CN([C@@H]13)[C@H]2O4`: the IC50 is 199 nM.
Consider `CC[C@H]1C[C@@H]2C[C@@]3(C(=O)OC)c4[nH]c5ccc(OC)cc5c4[C@H]4O[C@@H]2N([C@@H]4O)[C@@H]13`, for which the IC50 is 141 nM.
Consider `CC=C1CN(C)C2Cc3c([nH]c4ccccc34)C(c3cc4[nH]c5c(c4cc3OC)CCN3CC4CC(CC)C3C5(C(=O)OC)C4)CC1C2C(=O)OC` (stereo not drawn) [VOACAMINE], for which the half-maximal inhibitory concentration (IC50) amounted to 41 nM.
